From article PMC5478727, “A Novel Small Molecule GDNF Receptor RET Agonist, BT13, Promotes Neurite Growth from Sensory Neurons in Vitro and Attenuates Experimental Neuropathy in the Rat” (Frontiers in Pharmacology, 2017)

Experiments:
neurotensin receptor NT = experiment: CEREP NT (non-selective; agonist radioligand); type: binding; conditions: BT13 1 μM; Cat. No. 0465; average of duplicate
[1] = Metabolic stability in liver microsomes; type: in vitro ADME; conditions: 0.5 mg/ml rat liver microsomes; read-out: Microsomal stability (% remaining in 30 min)
[2] = Plasma stability, rat plasma; type: in vitro ADME; conditions: read-out: Plasma stability (% remaining after 1 h)
[3] = biological target: T1, hERG (human Ether-à-go-go-related gene) (Homo sapiens, UniProt Q12809); experiment: hERG competition assay with [3H]-astemizole; type: binding; conditions: competition with [3H]-astemizole; membranes of HEK293 cells; read-out: hERG inhibition (Ki)
T1 construct: host or cells: HEK293

[4] = biological target: T2, serotonin receptor 5-HT2A (Homo sapiens, UniProt P28223); experiment: CEREP 5-HT2A (h) (agonist radioligand); type: binding; conditions: BT13 1 μM; Cat. No. 0471; average of duplicate; read-out: Percentage of inhibition/potentiation from control
T2 construct: purchased CEREP (contract assay) 0471

[5] = biological target: T3, GDNF receptor complexes (cells overexpressing GFRα1/RET) (Homo sapiens, UniProt P07949); experiment: Displacement of 125I-GDNF; type: binding; conditions: BT13 50 μM; n = 5
T3 construct: full-length human RET (long isoform) in pCR3.1; expressed in transfected cells

[6] = Plasma stability, human plasma; type: in vitro ADME; conditions: read-out: Plasma stability (% remaining after 1 h)
adenosine receptor A2B = biological target: T4, adenosine receptor A2B (Homo sapiens, UniProt P29275); experiment: CEREP A2B (h) (antagonist radioligand); type: binding; conditions: BT13 1 μM; Cat. No. 0005; average of duplicate; read-out: Percentage of inhibition/potentiation from control
T4 construct: purchased CEREP (contract assay) Cat# 0005

[7] = Plasma stability, mouse plasma; type: in vitro ADME; conditions: read-out: Plasma stability (% remaining after 1 h)
[8] = tested on: adult rat lumbar DRG sensory neurons; experiment: Neurite outgrowth from cultured DRG neurons; type: cell-based; conditions: NGF 10 ng/ml, BT13 100 ng/ml
Procedure: Cultured lumbar DRG (L3–L5) neurons were prepared using a published method (O'Mullane et al., [2013]). After plating onto poly-L-ornithine (5 μg/ml)/laminin (5 μg/ml) coated coverslips for 1 h, DRG neurons were cultured for 24–30 h in fresh Neurobasal A/B27. GFLs, BT13, NGF, and vehicle control were added at the start of this period for a 24–30 h treatment, except when preceded by pre-treatment (1 h) with inhibitors (50 μM LY294002; 2 μM SU6656, […]; Biomol Research Laboratories, Plymouth Meeting, PA, USA). DRG neurons were then fixed (4% paraformaldehyde) and processed for immunocytochemistry with 1:200 Mouse anti-β III tubulin/AlexaFluor 594 (Sigma-Aldrich Cat# T8660 RRID:AB_477590) and 1:5,000 rabbit anti-calcitonin gene-related peptide/AlexaFluor 488 (Sigma-Aldrich Cat# C8198 RRID:AB_259091) and DAPI for nuclear staining (0.5 μg/ml, Molecular Probes). Image analysis of multichannel 12 bit Zeiss .ZVI or .TIF files (captured with a Zeiss Imager.M1/MRm camera/Zen software; Carl Zeiss Australia, North Ryde, NSW, Australia) was then performed by a researcher blinded to the experimental condition. Neurite initiation was measured by a single parameter (proportion of neurons with neurites longer than the soma diameter). Neurite elongation was measured by batch processing (HCA-Vision software; CSIRO Mathematical and Information Sciences, North Ryde, NSW, Australia) to obtain four parameters—Root number: number of primary neurites; Maximum length: length of longest neurite; Branch points: number of neurite branch points; and Total length: sum of neurite lengths (Kalous and Keast, [2010]; Kalous et al., [2012]). The number of neurons of each immunocytochemical class counted on each coverslip (technical replicates) was 50 for neurite initiation and 20 for neurite elongation. A minimum of three cultures from different rats (biological replicates) were analyzed for each treatment group.

rats = experiment: Tolerability: weight gain, toxic signs, pathological analysis of major organs; type: in vivo, rat
healthy rats = experiment: Acute nociception and motor coordination in healthy animals; type: in vivo, rat; conditions: BT13 25 mg/kg s.c.
[9] = biological target: T5, serotonin receptor 5-HT1A (Homo sapiens, UniProt P08908); experiment: CEREP 5-HT1A (h) (agonist radioligand); type: binding; conditions: BT13 1 μM; Cat. No. 0131; average of duplicate; read-out: Percentage of inhibition/potentiation from control
T5 construct: purchased CEREP (contract assay) 0131

[10] = CGRP-positive neurons, vs control

T1 sequence (Q12809 whole entry): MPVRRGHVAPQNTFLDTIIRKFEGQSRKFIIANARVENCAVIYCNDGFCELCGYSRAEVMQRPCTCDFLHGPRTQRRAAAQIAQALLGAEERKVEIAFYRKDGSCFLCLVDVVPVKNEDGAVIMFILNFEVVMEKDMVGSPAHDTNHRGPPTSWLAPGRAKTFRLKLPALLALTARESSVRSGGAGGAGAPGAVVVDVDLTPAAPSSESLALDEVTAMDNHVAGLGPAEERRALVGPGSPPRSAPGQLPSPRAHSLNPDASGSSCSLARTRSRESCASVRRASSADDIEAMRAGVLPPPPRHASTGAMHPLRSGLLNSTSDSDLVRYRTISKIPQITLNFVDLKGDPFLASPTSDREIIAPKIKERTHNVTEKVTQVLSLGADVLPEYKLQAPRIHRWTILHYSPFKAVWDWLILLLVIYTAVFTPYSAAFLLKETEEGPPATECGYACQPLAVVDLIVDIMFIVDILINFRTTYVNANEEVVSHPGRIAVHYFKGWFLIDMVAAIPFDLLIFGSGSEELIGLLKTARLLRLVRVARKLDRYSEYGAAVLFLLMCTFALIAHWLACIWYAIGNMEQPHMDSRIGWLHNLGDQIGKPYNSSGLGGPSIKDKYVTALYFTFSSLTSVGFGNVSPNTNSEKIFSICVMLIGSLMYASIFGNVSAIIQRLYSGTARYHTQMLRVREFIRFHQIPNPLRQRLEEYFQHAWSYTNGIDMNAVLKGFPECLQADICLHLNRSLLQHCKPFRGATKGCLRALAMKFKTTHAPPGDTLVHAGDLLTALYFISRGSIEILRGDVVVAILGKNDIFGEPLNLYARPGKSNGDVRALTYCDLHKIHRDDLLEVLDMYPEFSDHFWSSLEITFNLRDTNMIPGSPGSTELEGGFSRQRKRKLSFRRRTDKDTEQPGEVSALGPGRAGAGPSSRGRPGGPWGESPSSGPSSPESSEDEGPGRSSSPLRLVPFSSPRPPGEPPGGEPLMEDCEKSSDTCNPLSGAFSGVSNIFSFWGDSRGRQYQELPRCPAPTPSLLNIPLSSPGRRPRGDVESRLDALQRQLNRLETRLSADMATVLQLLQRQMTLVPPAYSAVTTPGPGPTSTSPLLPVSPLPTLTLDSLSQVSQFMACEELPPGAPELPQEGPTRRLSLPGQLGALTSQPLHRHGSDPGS
T4 sequence (P29275 whole entry): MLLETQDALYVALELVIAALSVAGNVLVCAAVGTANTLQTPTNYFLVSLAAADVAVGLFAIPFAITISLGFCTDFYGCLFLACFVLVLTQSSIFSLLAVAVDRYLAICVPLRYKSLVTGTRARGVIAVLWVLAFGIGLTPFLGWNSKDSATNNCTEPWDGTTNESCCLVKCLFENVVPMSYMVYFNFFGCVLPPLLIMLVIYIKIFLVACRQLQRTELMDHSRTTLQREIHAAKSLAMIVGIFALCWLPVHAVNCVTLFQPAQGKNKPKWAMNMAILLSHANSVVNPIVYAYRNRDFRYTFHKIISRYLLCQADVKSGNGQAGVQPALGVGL
T5 sequence (P08908 whole entry): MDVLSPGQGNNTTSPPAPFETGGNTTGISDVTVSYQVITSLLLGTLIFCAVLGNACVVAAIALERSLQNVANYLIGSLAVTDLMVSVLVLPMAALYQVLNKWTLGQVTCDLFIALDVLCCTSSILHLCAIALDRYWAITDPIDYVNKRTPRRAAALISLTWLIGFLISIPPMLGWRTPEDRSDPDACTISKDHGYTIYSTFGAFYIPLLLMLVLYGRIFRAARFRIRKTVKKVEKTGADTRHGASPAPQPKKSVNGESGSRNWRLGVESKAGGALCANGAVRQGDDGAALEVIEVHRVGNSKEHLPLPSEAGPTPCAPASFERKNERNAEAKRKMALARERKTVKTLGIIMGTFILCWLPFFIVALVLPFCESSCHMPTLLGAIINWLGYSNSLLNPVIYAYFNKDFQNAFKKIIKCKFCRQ
T3 sequence (P07949 29-1114, one chain of several): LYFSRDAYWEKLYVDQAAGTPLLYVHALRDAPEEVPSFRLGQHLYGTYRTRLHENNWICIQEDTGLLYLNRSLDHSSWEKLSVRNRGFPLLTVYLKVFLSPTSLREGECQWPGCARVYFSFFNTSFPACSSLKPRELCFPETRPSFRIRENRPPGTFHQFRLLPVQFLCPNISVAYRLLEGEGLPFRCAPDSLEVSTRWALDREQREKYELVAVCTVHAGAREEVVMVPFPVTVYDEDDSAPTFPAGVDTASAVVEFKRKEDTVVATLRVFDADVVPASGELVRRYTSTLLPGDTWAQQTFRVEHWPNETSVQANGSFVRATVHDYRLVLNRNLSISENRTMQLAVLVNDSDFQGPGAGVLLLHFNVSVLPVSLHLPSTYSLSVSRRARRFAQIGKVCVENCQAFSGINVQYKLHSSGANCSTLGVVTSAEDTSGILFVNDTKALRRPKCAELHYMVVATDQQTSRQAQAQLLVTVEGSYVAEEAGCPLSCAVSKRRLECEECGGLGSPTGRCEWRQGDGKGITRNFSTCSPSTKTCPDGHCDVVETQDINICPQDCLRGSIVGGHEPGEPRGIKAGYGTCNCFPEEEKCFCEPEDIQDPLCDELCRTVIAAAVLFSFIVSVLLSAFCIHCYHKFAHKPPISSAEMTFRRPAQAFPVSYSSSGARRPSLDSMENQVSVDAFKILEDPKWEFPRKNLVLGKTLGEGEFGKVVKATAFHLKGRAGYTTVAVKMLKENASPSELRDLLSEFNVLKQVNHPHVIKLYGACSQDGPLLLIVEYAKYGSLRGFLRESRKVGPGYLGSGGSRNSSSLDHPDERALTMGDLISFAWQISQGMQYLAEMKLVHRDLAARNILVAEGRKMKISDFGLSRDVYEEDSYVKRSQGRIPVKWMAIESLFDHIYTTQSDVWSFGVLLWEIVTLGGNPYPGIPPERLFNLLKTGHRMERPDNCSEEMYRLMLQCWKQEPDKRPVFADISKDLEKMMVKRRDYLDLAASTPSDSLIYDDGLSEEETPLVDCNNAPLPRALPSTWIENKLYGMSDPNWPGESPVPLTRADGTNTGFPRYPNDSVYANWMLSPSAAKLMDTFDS
T2 sequence (P28223 whole entry): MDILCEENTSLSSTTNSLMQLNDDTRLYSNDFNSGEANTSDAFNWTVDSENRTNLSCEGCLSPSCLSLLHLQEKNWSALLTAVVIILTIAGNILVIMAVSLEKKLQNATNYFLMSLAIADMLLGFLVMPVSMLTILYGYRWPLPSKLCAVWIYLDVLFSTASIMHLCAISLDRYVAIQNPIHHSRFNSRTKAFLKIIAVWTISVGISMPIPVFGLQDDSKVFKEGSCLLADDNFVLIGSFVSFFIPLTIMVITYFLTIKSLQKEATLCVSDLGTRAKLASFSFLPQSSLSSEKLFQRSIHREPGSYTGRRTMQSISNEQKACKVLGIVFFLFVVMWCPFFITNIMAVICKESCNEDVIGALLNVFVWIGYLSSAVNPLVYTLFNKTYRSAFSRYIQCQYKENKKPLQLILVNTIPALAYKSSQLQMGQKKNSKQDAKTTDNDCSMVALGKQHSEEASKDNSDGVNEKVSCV

CCN(CC)S(=O)(=O)c1ccc(OC)c(N2CCN(C(=O)c3ccc(F)cc3C(F)(F)F)CC2)c1 [BT13]
Percentage of inhibition/potentiation from control (neurotensin receptor NT): −6%
remaining at 0.5 h [1]: 2.8 ± 0.1%
remaining at 1 h [2]: 108 ± 7.3%
Ki [3]: > 30 µM
inhibition at 1 µM [4]: -11%
reduction of 125I-GDNF binding [5]: 25 ± 10.2%
remaining at 1 h [6]: 97 ± 0.1%
inhibition at 1 µM (adenosine receptor A2B): -14%
remaining at 1 h [7]: 110 ± 3.1%
neurite initiation or extension ([8]; CGRP-negative neurons, ARTN 30 ng/ml): no effect
neurite initiation ([8]; CGRP-positive neurons, ARTN 30 ng/ml, overnight): no effect
neurite elongation, branch points, mean difference [8, 10]: 22 ± 5
neurite elongation, maximum length, mean difference [8, 10]: 91 ± 13 μm
neurite elongation, total length, mean difference [8, 10]: 797 ± 207 μm
proportion of DRG neurons that expressed CGRP in culture ([8]; ARTN 30 ng/ml): did not alter
significant histopathological changes in major organs (rats; after completion of behavioral experiments): not detected
acute toxic effects, signs of pain or discomfort (rats; experimental animals treated with BT13): No acute toxic effects, signs of pain or obvious discomfort
tumor formation in the tissues of rats (rats; rat, in vivo): no tumor formation
baseline sensitivity to mechanical stimuli (paw pressure test) (healthy rats): no significant effect
baseline sensitivity to thermal stimuli (acetone test) (healthy rats): no significant effect
baseline sensitivity to thermal stimuli (hot plate) (healthy rats): no significant effect
baseline sensitivity to thermal stimuli (tail flick) (healthy rats): no significant effect
motor performance (rotarod test) (healthy rats): no significant effect
inhibition at 1 µM [9]: -8%
